In patent US12227509B2, “Dihydropyrazolopyrazinone derivative having MGAT2 inhibitory activity” (Shionogi & Co., Ltd., priority 2019, dated 2025):

Experiments:
[1] = Metabolism stability test (human liver microsomes); assay type: in vitro ADME; conditions: compound concentration 0.5 μmol/L, 37° C., 30 minutes, NADPH
Procedure: Using commercially available pooled human hepatic microsomes, the compound of the present invention was reacted for a constant time, a remaining rate was calculated by comparing a reacted sample and an unreacted sample, thereby, a degree of metabolism of the compound of the present invention in liver was assessed.
A reaction was performed (oxidative reaction) at 37° C. for 0 minute or 30 minutes in the presence of 1 mmol/L NADPH in 0.2 mL of a buffer (50 mmol/L Tris-HCl pH 7.4, 150 mmol/L potassium chloride, 10 mmol/L magnesium chloride) containing 0.5 mg protein/mL of human liver microsomes. After the reaction, 50 μL of the reaction solution was added to 100 μL of a methanol/acetonitrile=1/1 (v/v) solution, mixed and centrifuged at 3000 rpm for 15 minutes. The compound of the present invention in the supernatant was quantified by LC/MS/MS, and a remaining amount of the compound of the present invention after the reaction was calculated, letting a compound amount at 0 minute reaction time to be 100%.

hERG (IKr) = hERG (IKr) (Homo sapiens (Human), UniProt Q12809); test: hERG test; assay type: cell-based; conditions: CHO cells expressing hERG channel, pH 7.4, 10 μmol/L of test compound, read-out: % inhibition of hERG tail peak current (IKr)
Chain of hERG (IKr) (Q12809 whole entry): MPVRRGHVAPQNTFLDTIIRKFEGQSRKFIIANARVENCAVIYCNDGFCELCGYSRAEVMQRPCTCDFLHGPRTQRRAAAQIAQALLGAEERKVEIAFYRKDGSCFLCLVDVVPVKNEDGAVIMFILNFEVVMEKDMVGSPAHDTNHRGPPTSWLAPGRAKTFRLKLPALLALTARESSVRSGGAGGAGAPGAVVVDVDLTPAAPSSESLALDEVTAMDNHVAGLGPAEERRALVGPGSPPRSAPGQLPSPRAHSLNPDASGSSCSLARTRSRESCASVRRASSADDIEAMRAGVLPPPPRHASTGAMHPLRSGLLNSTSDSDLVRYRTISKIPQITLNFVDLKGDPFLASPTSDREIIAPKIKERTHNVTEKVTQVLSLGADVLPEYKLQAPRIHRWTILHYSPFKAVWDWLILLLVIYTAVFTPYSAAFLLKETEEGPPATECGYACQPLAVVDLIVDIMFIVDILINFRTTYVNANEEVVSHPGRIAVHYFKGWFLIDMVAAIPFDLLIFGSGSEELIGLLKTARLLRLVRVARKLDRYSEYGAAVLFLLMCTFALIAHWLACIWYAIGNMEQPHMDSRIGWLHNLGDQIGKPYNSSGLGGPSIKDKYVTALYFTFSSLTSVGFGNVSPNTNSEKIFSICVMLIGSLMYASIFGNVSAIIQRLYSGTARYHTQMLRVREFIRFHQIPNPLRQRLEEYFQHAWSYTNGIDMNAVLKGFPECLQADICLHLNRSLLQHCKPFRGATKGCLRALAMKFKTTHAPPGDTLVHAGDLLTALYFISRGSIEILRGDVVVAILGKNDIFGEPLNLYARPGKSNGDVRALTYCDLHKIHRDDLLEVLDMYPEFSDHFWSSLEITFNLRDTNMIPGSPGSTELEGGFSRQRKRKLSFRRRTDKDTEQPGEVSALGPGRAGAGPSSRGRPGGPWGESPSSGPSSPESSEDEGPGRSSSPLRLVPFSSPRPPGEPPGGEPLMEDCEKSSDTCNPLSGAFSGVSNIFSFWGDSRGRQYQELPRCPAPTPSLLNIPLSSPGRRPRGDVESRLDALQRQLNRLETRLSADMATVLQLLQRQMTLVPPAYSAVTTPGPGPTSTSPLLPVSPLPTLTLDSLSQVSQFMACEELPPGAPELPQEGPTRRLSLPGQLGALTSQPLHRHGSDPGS
Text: For the purpose of assessing risk of an electrocardiogram QT interval prolongation of the compound of the present invention, effects of the compound of the present invention on delayed rectifier K^+ current (IKr), which plays an important role in the ventricular repolarization process, was studied using CHO cells expressing human ether-a-go-go related gene (hERG) channel.
After a cell was retained at a membrane potential of −80 mV by whole cell patch clamp method using an automated patch clamp system (QPatch; Sophion BIoscience A/S), IKr induced by application of a leak potential of −50 mV followed by depolarization pulse stimulation at +20 mV for 2 seconds and, further, repolarization pulse stimulation at −50 mV for 2 seconds, was recorded. […] From the recording IKr, an absolute value of the tail peak current was measured based on the current value at the resting membrane potential using analysis software (Falster Patch; Sophion Bioscience A/S). Further, the % inhibition of tail peak current for the compound of the present invention relative to the tail peak current after application of the vehicle is calculated to assess influence of the compound of the present invention on IKr.

[2] = Solubility test (1% DMSO addition, pH 6.8 artificial intestinal juice); assay type: physicochemical; conditions: kinetic from dmso stock, 16 hours at 25° C.
Procedure: The solubility of the compound of the present invention was determined under 1% DMSO addition conditions. 10 mmol/L solution of the compound was prepared with DMSO, and 6 μL of the solution of the compound of the present invention was added to 594 μL of pH 6.8 artificial intestinal juice (118 mL of 0.2 mol/L NaOH test solution and water were added to 250 mL of 0.2 mol/L potassium dihydrogen phosphate test solution to reach 1000 mL). The mixture was left standing for 16 hours at 25° C., and the mixture was vacuum-filtered. The filtrate was two-fold diluted with methanol/water=1/1 (V/V), and the compound concentration in the filtrate was measured with HPLC or LC/MS/MS by the absolute calibration method. The dilution concentration and the dilution solvent were changed as necessary.

CYP3A4 [3] = biological target: T1, CYP3A4 (Homo sapiens (Human), UniProt P08684); test: CYP inhibition test, CYP3A4; assay type: in vitro ADME; conditions: pooled human liver microsomes; terfenadine hydroxylation; given as 'five kinds'
T1 sequence (P08684 whole entry): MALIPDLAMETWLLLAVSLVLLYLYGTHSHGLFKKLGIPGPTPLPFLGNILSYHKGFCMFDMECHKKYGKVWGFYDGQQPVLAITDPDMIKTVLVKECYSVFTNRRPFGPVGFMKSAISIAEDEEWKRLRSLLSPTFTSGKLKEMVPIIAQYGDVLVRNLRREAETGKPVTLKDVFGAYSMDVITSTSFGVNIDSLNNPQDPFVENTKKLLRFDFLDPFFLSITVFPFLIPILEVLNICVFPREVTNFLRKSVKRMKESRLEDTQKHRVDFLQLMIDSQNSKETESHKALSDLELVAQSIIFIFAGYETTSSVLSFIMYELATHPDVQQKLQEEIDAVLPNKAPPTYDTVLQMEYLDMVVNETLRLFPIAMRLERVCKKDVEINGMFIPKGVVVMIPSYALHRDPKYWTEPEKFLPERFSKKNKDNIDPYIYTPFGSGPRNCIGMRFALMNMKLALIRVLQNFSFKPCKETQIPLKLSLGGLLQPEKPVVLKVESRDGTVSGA
Text: (§1) Using commercially available pooled human hepatic microsome, and employing, as markers, 7-ethoxyresorufin O-deethylation (CYP1A2), tolbutamide methyl-hydroxylation (CYP2C9), mephenytoin 4'-hydroxylation (CYP2C19), dextromethorphan 0-demethylation (CYP2D6), and terfenadine hydroxylation (CYP3A4) as typical substrate metabolism reactions of human main five CYP enzyme forms (CYP1A2, 2C9, 2C19, 2D6, 3A4), an inhibitory degree of each metabolite production amount by the compound of the present invention was assessed. The reaction conditions are as follows: substrate, 0.5 μmol/L ethoxyresorufin (CYP1A2), 100 μmol/L tolbutamide (CYP2C9), 50 μmol/L S-mephenitoin (CYP2C19), 5 μmol/L dextromethorphan (CYP2D6), 1 μmol/L terfenedine (CYP3A4); reaction time, 15 minutes; reaction temperature, 37° C.; enzyme, pooled human liver microsomes 0.2 mg protein/mL; concentrations of the compound of the present invention, 1, 5, 10, 20 μmol/L (four points). As a reaction solution, each five kinds of substrates, human liver microsomes, or compound of the present invention in 50 mmol/L Hepes buffer were added to a 96-well plate at the composition as described above, and NADPH, as a cofactor was added to initiate metabolism reactions. After the incubation at 37° C. for 15 minutes, a methanol/acetonitrile=1/[…]) solution was added to stop the reaction. After the centrifugation at 3000 rpm for 15 minutes, resorufin (CYP1A2 metabolite) in the supernatant was quantified by a fluorescent multilabel counter or LC/MS/MS, and tolbutamide hydroxide (CYP2C9 metabolite), mephenytoin 4' hydroxide (CYP2C19 metabolite), dextrorphan (CYP2D6 metabolite), and terfenadine alcohol (CYP3A4 metabolite) were quantified by LC/MS/MS. Addition of only DMSO being a solvent dissolving a drug to a reaction system was adopted as a control (100%). Remaining activity (%) was calculated. IC50 was calculated by reverse presumption by a logistic model using the concentration and an inhibition rate.

CYP1A2 = CYP1A2 (Homo sapiens (Human), UniProt P05177); test: CYP inhibition test, CYP1A2; assay type: in vitro ADME; conditions: pooled human liver microsomes; 7-ethoxyresorufin O-deethylation; given as 'five kinds'
Chain of CYP1A2 (P05177 whole entry): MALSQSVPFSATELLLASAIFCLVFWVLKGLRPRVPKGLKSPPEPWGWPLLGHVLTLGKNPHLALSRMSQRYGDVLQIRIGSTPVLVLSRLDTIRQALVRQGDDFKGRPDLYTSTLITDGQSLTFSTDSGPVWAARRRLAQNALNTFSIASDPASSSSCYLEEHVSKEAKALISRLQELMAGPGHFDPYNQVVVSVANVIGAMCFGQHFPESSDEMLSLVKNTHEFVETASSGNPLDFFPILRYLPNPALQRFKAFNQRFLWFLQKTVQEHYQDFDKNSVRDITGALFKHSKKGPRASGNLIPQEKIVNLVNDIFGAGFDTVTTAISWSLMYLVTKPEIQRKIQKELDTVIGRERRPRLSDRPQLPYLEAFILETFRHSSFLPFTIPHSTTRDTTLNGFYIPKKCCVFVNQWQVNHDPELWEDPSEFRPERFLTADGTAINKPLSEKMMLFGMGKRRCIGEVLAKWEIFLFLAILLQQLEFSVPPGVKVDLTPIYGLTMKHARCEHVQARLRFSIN
Text: as §1

CYP2C9 = CYP2C9 (Homo sapiens (Human), UniProt P11712); test: CYP inhibition test, CYP2C9; assay type: in vitro ADME; conditions: pooled human liver microsomes; tolbutamide methyl-hydroxylation; given as 'five kinds'
Chain of CYP2C9 (P11712 whole entry): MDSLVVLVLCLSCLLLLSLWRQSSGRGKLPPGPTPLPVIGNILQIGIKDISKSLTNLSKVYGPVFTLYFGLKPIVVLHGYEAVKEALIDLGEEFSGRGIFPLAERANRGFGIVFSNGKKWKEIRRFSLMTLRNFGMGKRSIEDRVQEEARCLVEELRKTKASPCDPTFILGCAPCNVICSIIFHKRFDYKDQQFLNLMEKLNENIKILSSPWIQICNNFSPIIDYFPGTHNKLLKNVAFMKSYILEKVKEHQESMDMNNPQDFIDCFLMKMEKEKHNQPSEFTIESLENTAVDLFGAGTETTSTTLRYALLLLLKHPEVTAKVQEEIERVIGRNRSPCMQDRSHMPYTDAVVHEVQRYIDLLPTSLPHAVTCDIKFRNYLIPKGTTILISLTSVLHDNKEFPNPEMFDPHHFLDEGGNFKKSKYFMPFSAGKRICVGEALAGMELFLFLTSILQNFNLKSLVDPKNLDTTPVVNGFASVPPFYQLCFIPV
Text: as §1

CYP2D6 = CYP2D6 (Homo sapiens (Human), UniProt P10635); test: CYP inhibition test, CYP2D6; assay type: in vitro ADME; conditions: pooled human liver microsomes; dextromethorphan O-demethylation; given as 'five kinds'
Chain of CYP2D6 (P10635 whole entry): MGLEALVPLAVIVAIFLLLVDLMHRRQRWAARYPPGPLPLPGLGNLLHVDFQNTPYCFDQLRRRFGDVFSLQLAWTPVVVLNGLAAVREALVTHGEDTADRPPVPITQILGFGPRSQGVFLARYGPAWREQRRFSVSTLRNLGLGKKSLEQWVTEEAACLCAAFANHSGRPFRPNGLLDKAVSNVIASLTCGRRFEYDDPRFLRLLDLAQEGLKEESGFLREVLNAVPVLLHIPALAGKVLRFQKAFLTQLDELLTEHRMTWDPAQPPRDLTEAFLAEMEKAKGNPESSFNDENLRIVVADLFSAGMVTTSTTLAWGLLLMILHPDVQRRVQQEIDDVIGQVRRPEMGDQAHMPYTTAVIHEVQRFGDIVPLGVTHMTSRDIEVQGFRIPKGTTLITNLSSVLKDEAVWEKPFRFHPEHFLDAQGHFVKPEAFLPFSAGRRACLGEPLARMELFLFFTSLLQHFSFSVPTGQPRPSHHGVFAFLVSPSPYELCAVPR
Text: as §1

CYP3A4 [4] = biological target: T1, CYP3A4; test: CYP3A4 (MDZ) MBI test; assay type: in vitro ADME; conditions: pooled human liver microsomes; midazolam 1-hydroxylation; preincubation 0 vs 30 min
Procedure: CYP3A4 (MDZ) MBI test is a test of investigating mechanism based inhibition (MBI) potential on CYP3A4 by the enhancement of inhibitory degree of a metabolic reaction caused by the compound of the present invention. CYP3A4 inhibition was evaluated using pooled human liver microsomes by 1-hydroxylation reaction of midazolam (MDZ) as a marker reaction.
The reaction conditions are as follows: substrate, 10 μmol/L MDZ; pre-reaction time, 0 or 30 minutes; substrate reaction time, 2 minutes; reaction temperature, 37° C.; protein content of pooled human liver microsomes, at pre-reaction time 0.5 mg/mL, at reaction time 0.05 mg/mL (at 10-fold dilution); concentrations of the compound of the present invention, at pre-reaction time 1, 5, 10, 20 μmol/L (four points).
Pooled human liver microsomes and a solution of the compound of the present invention in K-Pi buffer (pH 7.4) as a pre-reaction solution were added to a 96-well plate at the composition of the pre-reaction. A part of pre-reaction solution was transferred to another 96-well plate, and 1/10 diluted by K-Pi buffer containing a substrate. NADPH as a co-factor was added to initiate a reaction as a marker reaction (without pre-reaction). After a predetermined time of a reaction, methanol/acetonitrile=1/1 (V/V) solution was added to stop the reaction. In addition, NADPH was added to a remaining pre-reaction solution to initiate a pre-reaction (with pre-reaction). After a predetermined time of a pre-reaction, a part was transferred to another plate, and 1/10 diluted by K-Pi buffer containing a substrate to initiate a reaction as a marker reaction. After a predetermined time of a reaction, methanol/acetonitrile=1/1 (V/V) solution was added in order to stop the reaction. The plate on which each index reaction had been performed was centrifuged at 3000 rpm for 15 minutes, and thereafter 1-hydroxylated midazolam in the supernatant was quantified by LC/MS/MS.
The sample adding DMSO as a solvent to a reaction system instead of a solution dissolving the compound of the present invention was adopted as a control (100%). Remaining activity (%) was calculated at each concentration of the compound of the present invention compared to a control, and IC value was calculated by reverse-presumption by a logistic model using a concentration and an inhibition rate. IC at Preincubation 0 min/IC at Preincubation 30 min was defined as a value of Shifted IC, and a case that Shifted IC was 1.5 or more was regarded as Positive, and a case that Shifted IC was 1.0 or less was regarded as Negative.

CYP2C19 = CYP2C19 (Homo sapiens (Human), UniProt P33261); test: CYP inhibition test, CYP2C19; assay type: in vitro ADME; conditions: pooled human liver microsomes; mephenytoin 4′-hydroxylation; given as 'five kinds'
Chain of CYP2C19 (P33261 whole entry): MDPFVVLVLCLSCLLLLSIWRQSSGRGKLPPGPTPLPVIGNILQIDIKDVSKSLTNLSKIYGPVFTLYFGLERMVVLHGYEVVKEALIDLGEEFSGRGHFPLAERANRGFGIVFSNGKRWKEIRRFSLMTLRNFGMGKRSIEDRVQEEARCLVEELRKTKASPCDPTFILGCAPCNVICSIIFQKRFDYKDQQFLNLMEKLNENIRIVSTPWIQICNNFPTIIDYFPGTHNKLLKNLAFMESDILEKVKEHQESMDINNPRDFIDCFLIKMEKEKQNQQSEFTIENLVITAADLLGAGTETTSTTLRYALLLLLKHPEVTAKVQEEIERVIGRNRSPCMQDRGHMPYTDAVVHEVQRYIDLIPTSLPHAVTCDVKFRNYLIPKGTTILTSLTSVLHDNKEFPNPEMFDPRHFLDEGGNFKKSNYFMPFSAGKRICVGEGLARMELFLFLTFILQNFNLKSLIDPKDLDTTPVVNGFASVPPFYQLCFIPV
Text: as §1

recombinant human MGAT2 = recombinant human MGAT2 (Homo sapiens (Human), UniProt Q3SYC2); test: Measurement of human MGAT2 inhibitory activity; assay type: biochemical; conditions: concentration exhibiting 50% enzyme inhibition; recombinant human MGAT2, 2-Oleoylglycerol/Oleoyl-CoA
Chain of recombinant human MGAT2 (Q3SYC2 whole entry): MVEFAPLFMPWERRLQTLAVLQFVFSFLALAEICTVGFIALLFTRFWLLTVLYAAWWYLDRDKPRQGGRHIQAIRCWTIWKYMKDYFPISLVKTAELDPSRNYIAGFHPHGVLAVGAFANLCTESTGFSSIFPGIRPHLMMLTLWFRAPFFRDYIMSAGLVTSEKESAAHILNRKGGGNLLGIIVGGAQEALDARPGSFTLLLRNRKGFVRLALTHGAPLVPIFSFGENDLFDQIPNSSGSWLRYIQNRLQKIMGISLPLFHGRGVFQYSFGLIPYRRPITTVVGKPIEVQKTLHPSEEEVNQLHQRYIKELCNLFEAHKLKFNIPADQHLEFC
How it was run: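 Membrane fraction of baculovirus-infected Sf-9 cells expressing N-terminally Flag-tagged full-length human MGAT2, in 100 mmol/L phosphate pH 7.4 with 2 mmol/L DTT. The substrate solution held 30 μmol/L 2-oleoylglycerol and 10 μmol/L oleoyl-CoA. After 1 h at room temperature, diolein/diolein-d5 ratio was read by ESI Q-TOF MS and % inhibition derived against enzyme and no-enzyme controls.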

Row | SMILES | Remaining rate [1] | inhibition at 10 min, 10 μmol/L (hERG (IKr)) | solubility at 16 h [2] | IC50 (CYP3A4 [3]) | IC50 (CYP1A2) | IC50 (CYP2C9) | IC50 (CYP2D6) | CYP3A4 (MDZ) MBI (Shifted IC judgement) (CYP3A4 [4]) | IC50 (CYP2C19) | IC50 (recombinant human MGAT2)
1 | CS(=O)(=O)CC(=O)Nc1c(-c2ccc(F)cc2)nn2c1C(=O)N[C@]1(CCc3cc(OCC(F)(F)F)ccc31)C2 [Compound I-79] | 77.2% | 25.5% | > 50 µM | – | – | – | – | – | – | –
2 | CS(=O)(=O)CC(=O)Nc1c(-c2ccc(Cl)cn2)nn2c1C(=O)N[C@]1(CCc3cc(F)cc(F)c31)C2 [Compound I-147] | 89.8% | 21.6% | > 50 µM | > 20 µM | > 20 µM | > 20 µM | > 20 µM | Negative (a case that Shifted IC was 1.0 or less was regarded as Negative) | > 20 µM | –
3 | CS(=O)(=O)CC(=O)Nc1c(-c2ccc(F)cc2)nn2c1C(=O)NC1(CN(c3ccc(C(F)(F)F)cc3)C1)C2 [Compound I-61] | 95.6% | – | – | – | – | – | – | – | – | 0.00141 µM
4 | CS(=O)(=O)CC(=O)Nc1c(-c2ccc(F)c(F)c2)nn2c1C(=O)N[C@@]1(CCOc3cc(F)cc(F)c31)C2 [Compound I-126] | 100% | 14.2% | > 50 µM | > 20 µM | > 20 µM | > 20 µM | > 20 µM | Negative (a case that Shifted IC was 1.0 or less was regarded as Negative) | > 20 µM | –
5 | CS(=O)(=O)CC(=O)Nc1c(-c2ccc(F)cc2)nn2c1C(=O)N[C@@]1(CCOc3cc(OCC(F)(F)F)ccc31)C2 [Compound I-66] | 105% | 14.6% | > 50 µM | > 20 µM | > 20 µM | > 20 µM | > 20 µM | Negative (a case that Shifted IC was 1.0 or less was regarded as Negative) | > 20 µM | –
6 | CS(=O)(=O)CC(=O)Nc1c(-c2ccc(Cl)cn2)nn2c1C(=O)N[C@]1(CCOc3cc(F)cc(F)c31)C2 [Compound I-151] | 104% | 25.8% | > 50 µM | > 20 µM | > 20 µM | > 20 µM | > 20 µM | Negative (a case that Shifted IC was 1.0 or less was regarded as Negative) | > 20 µM | –
7 | CS(=O)(=O)CC(=O)Nc1c(-c2ccc(F)c(F)c2)nn2c1C(=O)N[C@@]1(CCc3cc(F)cc(F)c31)C2 [Compound I-130] | 94.8% | 15.4% | > 50 µM | > 20 µM | > 20 µM | > 20 µM | > 20 µM | Negative (a case that Shifted IC was 1.0 or less was regarded as Negative) | > 20 µM | –
8 | N#Cc1ccc(-c2nn3c(c2NC(=O)c2ccno2)C(=O)N[C@@]2(CCc4cc(OCC(F)(F)F)ccc42)C3)nc1 [Compound I-13] | 76% | – | – | – | – | – | – | – | – | 0.00193 µM
